Experimental data as given in PubChem BioAssay AID179 (DTP/NCI, 2004).
Active and inactive are the calls of the source.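 How the source made its calls: active means compounds giving half or more protection of infected cells from virus-caused growth loss, again on retest; inactive means the rest.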 *1 amine or outer side, *2 acyl side, *3 side chain or, on linkers, in order; H or OH if unused. Where a SMILES comes first, the peptide text is derived from it. [ ]: non-standard residue; d: D form. ξ: configuration not given here. X15 = O=C([C@H]1CCC[C@H]1N[*:1])[*:2]; ξW = NC(Cc1c[nH]c2ccccc12)C(=O)O; ξF = NC(Cc1ccccc1)C(=O)O; ξK = NCCCCC(N)C(=O)O; ξT = CC(O)C(N)C(=O)O

Test system: CEM cells HIV-1 protection, formazan growth assay
Experiment: NCI AIDS Antiviral Assay
Conditions: for IC50: measured here: growth of uninfected CEM cells
Summary of the method: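 Soluble formazan readout of cell growth; CEM cells ± HIV-1; 5 drug concs. ≥50% protection → retest; ≥50% again = moderately active; reproducible 100% = confirmed active.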

Structure (SMILES)	EC50 [µM]	IC50 [µM]	outcome
Cc1ccc(S(=O)(=O)OC2C(O)C(CO)OC2n2c(Br)c(C(N)=O)c3c(N)ncnc32)cc1 (stereo not given)	> 200	> 200	
COC(=O)C1[C@@H](C(=O)OC)C12C=Cc1ccccc1C=C2 (stereo not given in full)	> 200	> 200	
CC1=C(O)C(=O)C(C)=C(O)C1=O	> 513	9.33	
O=[N+]([O-])c1ccccc1C1N2CCCCC2[C@@H]2c3[nH]c4ccccc4c3CCN12 (stereo not given in full)	> 18.6	> 18.6	
C/C(=N/NC(=S)N1CC2CCC(CC2)C1)c1cnccn1	> 2.24	0.049	
CCCCC(CC)CN(Cc1cc(CN(CC(CC)CCCC)CC(CC)CCCC)c(O)c(CN(CC(CC)CCCC)CC(CC)CCCC)c1)CC(CC)CCCC (stereo not given)	> 200	34.7	
O=c1oc(-c2ccccc2Br)ns1	> 100	52.5	
COC1=C(C)C(=O)c2c(c(COC(N)=O)c3n2CC(OC(C)=O)C3OC(C)=O)C1=O (stereo not given)	> 2	0.178	
NC1CSc2ccccc2NC1=O (stereo not given)	> 407	> 407	
CCOC(=O)C(=CNc1ccc(NC2=NCC(C)S2)cc1)C(=O)OCC (stereo not given)	> 200	3.24	
O=C1c2ccccc2C(=O)N1[C@@H](Cc1ccccc1)C(=O)n1cccc1CO	> 200	174	
N#Cc1nc2ccccc2nc1N1CCN(c2ccc([N+](=O)[O-])cc2)CC1	> 200	> 200	
COc1cc(CCNC(C)=O)cc(OC)c1OC	> 200	> 200	
Cc1cc(S(=O)(=O)Nc2nc3ncccc3[nH]2)c(S)cc1Cl	33.1	> 200	
Cc1cc(S(=O)(=O)Nc2nc(N)nc3nc4ccccc4n23)c(S)cc1Cl	95.5	380	
CC1(C)C2CC3OC3(C)C1C2 (stereo not given)	> 200	> 200	
COc1cc2c(cc1OC)C(=O)/C(=C/c1ccccc1)C2	> 200	151	
Cc1c(C)c2c(c(N)c1C#N)C(=O)N(NC(=O)c1ccccc1)C2=O	> 200	186	
Cc1ccc(NC(=O)C2C(=O)N(c3ccc(C)c(C)c3)C(=O)/C2=N/O)cc1C (stereo not given)	> 19.1	> 19.1	
CCCCCCO/N=C\c1c2c(O)c3c(O)c(C)c4c(c3c1O)C(=O)C(C)(O/C=C\C(OC)C(C)C(OC(C)=O)C(C)C(O)C(C)C(O)C(C)/C=C\C=C(\C)C(=O)N2)O4 (stereo not given)	> 200	5.37	
Cc1cc2c(cc1Cl)SC(NNc1ccc([N+](=O)[O-])cc1)=NS2(=O)=O			inactive
NC(Cc1ccc(S(=O)(=O)O)cc1)C(=O)NC(Cc1ccc(S(=O)(=O)O)cc1)C(=O)NC(Cc1ccc(S(=O)(=O)O)cc1)C(=O)NC(Cc1ccc(S(=O)(=O)O)cc1)C(=O)O (stereo not given)	> 200	> 200	

Structure (SMILES)	EC50 [µM]	IC50 [µM]	outcome
CC(C)=C1C(=O)C[C@@]2(C)C[C@H]3OC3(C)CC/C=C(/C)CCC12 (stereo not given in full)			inactive
O=C(CC(C(=O)c1ccsc1)c1ccsc1)c1ccsc1 (stereo not given)	> 200	22.4	
CCCC/C(C)=N/NC(N)=S			inactive
O=[N+]([O-])c1ccc(N=Nc2ccc3c(c2)-c2ccccc2C3=P(c2ccccc2)(c2ccccc2)c2ccccc2)cc1	> 200	33.1	
C=C[C@H]1C=Cc2ccccc2[C@]1(C=O)CCC1(C)OCCO1	> 832	676	
CN1C(=O)C2(C=CCC2)c2ccccc21 (stereo not given)	> 1260	81.3	
O=C(O)CCCCCCC[C@@H]1S[C@H]1CCCCCCO			inactive
S=C=Nc1ccc(CSc2nc3ccccc3[nH]2)cc1			inactive
CCCCCCCCCCCCCCCCCC(=O)OCC(O)CO (stereo not given)	> 2.09	> 2.09	
COc1cccc(Nc2nc(N)nc(N)c2N=O)c1	> 200	11.2	
O=C(OCCN1CCOCC1)c1cc2ccccc2oc1=O	> 741	> 741	
O=[N+]([O-])c1ccc(C2=NOC(c3ccccc3F)N2C23CC4CC(CC(C4)C2)C3)cc1 (stereo not given)	195	> 200	
O=C(O)c1ccc(CSc2ccc([N+](=O)[O-])cc2)cc1	> 89.1	72.4	
CCN1C[C@]2(C)CC[C@H](OCc3ccccc3)C34C5C[C@@H]6CC[C@](O)(C(C[C@@H]32)C14)C5[C@H]6OCc1ccccc1 (stereo not given in full)	> 200	> 100	
COc1cccc(C=NC23CC4CC(CC(C4)C2)C3)c1	> 69.2	> 69.2	
CC/C(=C(\c1ccccc1)c1ccc(OCCN(C)C)cc1)c1ccccc1	> 83.2	14.8	
O=C(NC1C(=O)NNC1c1cccc([N+](=O)[O-])c1)c1ccccc1 (stereo not given)	> 288	> 288	
OC(c1ccccc1)c1c(-c2ccccc2)oc(-c2ccccc2)c1C(O)c1ccccc1 (stereo not given)			inactive
CS(=O)(=O)SCc1ccc([N+](=O)[O-])cc1	> 145	20.4	
CCN1C(=O)C(N=[N+]=[N-])(c2ccccc2)C(=O)c2ccccc21 (stereo not given)	> 200	> 200	
O=C(NN=C1CCN(Cc2ccccc2)CC1)C(O)(c1ccccc1)c1ccccc1	> 200	> 200	
COc1ccc(C(O)/C(=C/n2ccnc2)c2ccccc2)cc1OC (stereo not given)	> 537	> 537	

Structure (SMILES)	EC50 [µM]	IC50 [µM]	outcome
O=C(O)CNC(=O)OCCCCOC(=O)NCC(=O)O	> 851	> 851	
N#Cc1cn(C2OC(CO)C(O)C2O)c2ncnc(N)c12 (stereo not given)	> 0.2	0.00151	
COC(C(=O)CN(C)C)(c1ccccc1)c1ccccc1	> 200	141	
C[N+]1(C)N=C(c2ccccc2)C=C1[O-]	> 200	> 200	
O=NN(O)c1ccccc1.O=NN(O)c1ccccc1.[Cu]			inactive
C=C(C)C1CC(=O)C(C)=C(O)C1 (stereo not given)			inactive
C=C1CCc2ccccc2C1=O	> 200	31.6	
Cc1nc(N)c(N2CCNCC2)c(=O)[nH]1	> 200	> 200	
C1CSCCSCCSCCSCCSCCS1	> 14.5	> 14.5	
CN(C)c1ccc(-c2nnc3c(c(=O)n(C)c(=O)n3C)[n+]2[O-])cc1	> 200	19.1	
N#C/C(=C\c1ccc(O)c(O)c1)C(=O)c1ccc(O)c(O)c1	> 200	51.3	
Cn1c(O)c(/C=N/c2ncccn2)c(=O)[nH]c1=O	> 200	> 200	
C1=Nc2ccccc2N=Cc2ccccc2NCCNc2ccccc21	> 200	> 200	
O=C(n1c(=O)n(-c2ccc(Cl)cc2)c(=O)n1C(=O)C(Cl)(Cl)Cl)C(Cl)(Cl)Cl	> 200	> 200	
CC1CCCN(CC(O)CN2CCN(CC(O)CN3CCCC(C)C3)CC2)C1 (stereo not given)	> 13.2	> 13.2	
CCCCCCCCCCCCCCCCCCN1CN(CO)C(=O)N(CO)C1	> 200	166	
CC(CC(=O)N1C(=O)C(C)(C)[C@@H](O)[C@H]1CC(C)C(Cl)(Cl)Cl)C(Cl)(Cl)Cl (stereo not given in full)			inactive
CCCC(C)C(N)=Nc1ccc(Cl)c(Cl)c1 (stereo not given)	> 200	45.7	
Cn1cc(C(N)=O)ccc1=N	> 200	> 200	
CSc1nc(Cl)c2c(n1)Sc1nc3ccccc3n1C2O (stereo not given)	> 200	6.31	
CCC1=CCN(c2ccc(C)cc2)OC1c1ccc(OC)cc1 (stereo not given)	> 32.4	> 32.4	
CCSc1nnc(-c2ccccc2)nc1Cc1ccc(OC)cc1	> 14.8	> 14.8	

Structure (SMILES)	EC50 [µM]	IC50 [µM]	outcome
O=C1CCC(=O)N1C(c1ccccc1)(c1ccccc1)c1ccccc1	> 200	> 200	
O=C1C=CC(=O)c2nc3c(nc21)[nH]c1ccccc13	> 26.3	13.2	
C=CC1=CC(C)C[C@]1(O)C(=O)OC (stereo not given in full)	> 1380	708	
O=C1c2ccccc2-c2ccccc2C(=O)C1(Br)Br			inactive
CCCCCCCCCCNC1CC(OC2CC(O)(C(O)CO)Cc3c(O)c4c(c(O)c32)C(=O)c2c(OC)cccc2C4=O)OC(C)C1O (stereo not given)			inactive
O=C(O)Cc1cccc2c1OC(c1ccccc1)C(Cl)(C(=O)c1ccccc1)C2=O (stereo not given)	> 200	5.5	
CN(C)C(C1=C(O)C(c2ccccc2)N(c2ccccc2)C1=O)N1CCOCC1 (stereo not given)			inactive
CC(=O)c1cccc(NC(=O)/C(=N\NC(C)(C)C)c2c(O)c3ccccc3oc2=O)c1	> 589	257	
COC(=O)c1c(C)cc(C)cc1OC	> 200	151	
Cc1cc(N(CCC#N)CCC#N)ccc1/C=C(\NC(=O)/C=C/c1ccccc1)C(N)=O			inactive
O=C(/C=C/c1ccccc1)CC(=O)/C=C/c1ccccc1	> 200	30.9	
COC(=O)[C@@H]1COC(=O)N1	> 200	> 200	
CN(CCCNC(=O)c1cn(C)c2c1ccc1ccccc12)CCCNC(=O)c1cn(C)c2c1ccc1ccccc12	> 200	2.88	
O=[N+]([O-])c1ccc([I+]c2ccccc2)cc1	> 200	2.57	
CN(C)C(=S)/N=C1\SC(=Nc2ccccc2)C(=Nc2ccccc2)N1c1ccc([N+](=O)[O-])cc1	> 200	138	
CCCCCCCCCCC(C)CCCCCCC(=O)OCC(COP(=O)([O-])OCC[N+](C)(C)C)OC(=O)CCCCCCC(C)CCCCCCCCCC (stereo not given)			inactive
CCOC(=O)C(=O)Nc1c(C)cccc1C(C)C	> 1000	> 1000	
CC(O)C1NC(=O)C(CCCCN)NC(=O)C(Cc2c[nH]c3ccccc23)NC(=O)C(Cc2ccccc2)NC(=O)[C@H]2CCC[C@H]2NC(=O)C(Cc2ccccc2)NC1=O (stereo not given in full) (cyclo([X15][ξF][ξW][ξK][ξT][ξF]))	> 200	> 200	
O=C1c2ccccc2C(=O)N1Cc1ccccc1-c1c2nc(c(-c3ccccc3CN3C(=O)c4ccccc4C3=O)c3ccc([nH]3)c(-c3ccccc3CN3C(=O)c4ccccc4C3=O)c3nc(c(-c4ccccc4CN4C(=O)c5ccccc5C4=O)c4ccc1[nH]4)C=C3)C=C2	> 4.17	> 4.17	
C=CC1(c2ccccc2Cl)N/C(=C/OCC)CO1 (stereo not given)	> 26.9	> 26.9	
N#CCCN(C1=NN(C(=O)CC(=O)Nc2ccccc2Cl)C(c2ccccc2)C1)c1ccc(Cl)cc1 (stereo not given)	> 3.89	> 3.89	
